Assay results from US20190053492A1, “SUBSTITUTED PYRIDINE COMPOUNDS AS PESTICIDES” (Bayer CropScience Aktiengesellschaft, priority 2016, published 2019).
Where two headings read alike, the source gives them in different places.

Legend:
[1] = log P by HPLC on reversed-phase column (C 18), EEC Directive 79/831 Annex V.A8; assay type: physicochemical; settings: 55° C.; for LOGP_HCOOH: log P (HCOOH); for chromatographic logP: reversed-phase HPLC column (C 18)
Description: Temperature: 55° C. […] Called log P (HCOOH) in the table. […] Called log P (neutral) in the table.

Phaedon cochleariae = Phaedon cochleariae spray test; assay type: in vivo; settings: after 7 days, Chinese cabbage leaf discs
Method in brief: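 Chinese cabbage leaf discs sprayed with compound in acetone/DMF and emulsifier-containing water, then infested with mustard beetle larvae once dry. Efficacy in % scored after 7 days (100% = all larvae killed, 0% = none).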

Spodoptera frugiperda = Spodoptera frugiperda spray test; assay type: in vivo; settings: after 7 days, maize leaf discs
Method in brief: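 Maize leaf discs were sprayed with compound formulated in acetone/DMF and emulsifier-containing water, dried, then infested with Spodoptera frugiperda caterpillars. Percent kill was scored after 7 days, from 100% (all dead) to 0% (none dead).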

Tetranychus urticae = Tetranychus urticae spray test, OP-resistant; assay type: in vivo; settings: after 6 days, bean leaf discs
Description: Tetranychus urticae—Spray Test, OP-Resistant
Solvent: 78.0 parts by weight of acetone • • 1.5 parts by weight of dimethylformamide
Emulsifier: alkylaryl polyglycol ether
To produce a suitable active ingredient formulation, 1 part by weight of active ingredient is dissolved with the specified parts by weight of solvent and made up with water containing an emulsifier concentration of 1000 ppm until the desired concentration is attained. To produce further test concentrations, the formulation is diluted with emulsifier-containing water.
Discs of bean leaves (Phaseolus vulgaris) infested with all stages of the greenhouse red spider mite (Tetranychus urticae) are sprayed with an active ingredient formulation of the desired concentration.
After 6 days, the efficacy in % is determined. 100% means that all the spider mites have been killed; 0% means that no spider mites have been killed.

Ctenocephalides felis [2] = assay: Ctenocephalides felis oral test; assay type: in vivo; settings: application rate 100 ppm in citrated cattle blood, after 2 days, adult cat fleas
Method in brief: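 About 20 unfed adult cat fleas fed through a parafilm membrane on citrated cattle blood dosed with compound from a DMSO formulation. Percent kill was scored after 2 days.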

Meloidogyne incognita = Meloidogyne incognita test; assay type: in vivo; settings: application rate 20 ppm, after 14 days, lettuce
Description: Meloidogyne incognita Test Solvent: 125.0 parts by weight of acetone To produce a suitable active ingredient formulation, 1 part by weight of active ingredient is mixed with the stated amount of solvent and the concentrate is diluted with water to the desired concentration. Vessels are filled with sand, active ingredient solution, an egg/larvae suspension of the southern root-knot nematode (Meloidogyne incognita) and lettuce seeds. The lettuce seeds germinate and the plants develop. The galls develop on the roots. After 14 days, the nematicidal efficacy in % is determined by the formation of galls. 100% means that no galls were found; 0% means that the number of galls on the treated plants corresponds to the untreated control.

Lucilia cuprina = Lucilia cuprina test; assay type: in vivo; settings: application rate 100 ppm, after 2 days, L1 larvae
Method in brief: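 Active ingredient dissolved in DMSO and diluted with water to the test concentration. About 20 first-instar sheep blowfly larvae placed on minced horsemeat containing the formulation; percentage of larvae killed scored after 2 days.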

Ctenocephalides felis [3] = assay: Ctenocephalides felis in vitro contact test with adult cat fleas; assay type: in vivo; settings: application rate 5 μg/cm^2 (500 g/ha), after 48 h
Description: Ctenocephalides felis—In Vitro Contact Tests with Adult Cat Fleas
For the coating of the test tubes, 9 mg of active ingredient are first dissolved in 1 ml of acetone p.a. and then diluted to the desired concentration with acetone p.a. 250 μl of the solution are distributed homogeneously on the inner walls and the base of a 25 ml glass tube by turning and rocking on an orbital shaker (rocking rotation at 30 rpm for 2 h). With 900 ppm of active ingredient solution and internal surface area 44.7 cm^2, given homogeneous distribution, an area-based dose of 5 μg/cm^2 is achieved.
After the solvent has evaporated off, the tubes are populated with 5-10 adult cat fleas (Ctenocephalides felis), sealed with a perforated plastic lid and incubated in a horizontal position at room temperature and ambient humidity. After 48 h, efficacy is determined. To this end, the tubes are stood upright and the fleas are knocked to the base of the tube. Fleas which remain motionless at the base or move in an uncoordinated manner are considered to be dead or moribund.
100% efficacy means that all the fleas were dead or moribund. 0% efficacy means that no fleas were harmed.

[4] = acidic range at pH 2.7, 0.1% aqueous formic acid and acetonitrile, HPLC on reversed-phase column (C 18)
[5] = log P, neutral range, HPLC on reversed-phase column (C 18)
[6] = acidic range pH 2.7, 0.1% aqueous formic acid and acetonitrile, reversed-phase column (C 18)

## CC(NC(=O)c1cc(-c2ccc(OC(F)(F)F)cc2)cc(NC(=O)C2CC2)n1)c1ccc(C#N)cc1 (single isomer, unassigned) [Example I-218]
[1]; [4]
  LOGP_HCOOH: 4.17
[1]; [5]
  LOGP_NEUTRAL: 4.02
Phaedon cochleariae; application rate 100 g/ha
  efficacy (beetle larvae killed): 100%
Phaedon cochleariae; application rate 500 g/ha
  efficacy (beetle larvae killed): 100%
Spodoptera frugiperda; application rate 100 g/ha
  efficacy (caterpillars killed): 100%
Spodoptera frugiperda; application rate 500 g/ha
  efficacy (caterpillars killed): 100%
Tetranychus urticae; application rate 100 g/ha
  efficacy (spider mites killed): 90%
Tetranychus urticae; application rate 500 g/ha
  efficacy (spider mites killed): 90%

## N#CCNC(=O)c1cc(-c2ccc(C(F)(F)F)cc2)cc(NC(=O)C2CC2)n1 [Example I-025]
[1]; [6]
  LOGP_HCOOH: 3.05
[1]; [5]
  LOGP_NEUTRAL: 3.01
Ctenocephalides felis [2]
  efficacy (kill in %): 98%
Meloidogyne incognita
  nematicidal efficacy (formation of galls): 100%
Phaedon cochleariae; application rate 500 g/ha
  efficacy (beetle larvae killed): 100%
Spodoptera frugiperda; application rate 100 g/ha
  efficacy (caterpillars killed): 100%
Spodoptera frugiperda; application rate 500 g/ha
  efficacy (caterpillars killed): 100%

## CN(C(=O)c1cc(-c2ccc(C(F)(F)F)cc2)cc(NC(=O)C2CC2)n1)C1CC1 [Example I-036, N-Cyclopropyl-6-[(cyclopropylcarbonyl)amino]-N-methyl-4-[4-(trifluoromethyl)phenyl]pyridine-2-carboxamide]
[1]; [5]
  LOGP_NEUTRAL: 3.21
[1]; pH 2.7, log P (HCOOH), acidic range pH 2.7, 0.1% aqueous formic acid and acetonitrile, reversed-phase column (C 18), read-out: LOGP_HCOOH
  chromatographic logP: 3.3
[1]; pH 7.8, LC-MS neutral range, pH 7.8, ammonium hydrogencarbonate/acetonitrile, read-out: log P (neutral)
  chromatographic logP: 3.21
Ctenocephalides felis [2]; Ctenocephalides felis, po, 48 h, read-out: efficacy (kill in %)
  pest or weed control at 100 ppm: 100%
Spodoptera frugiperda; Spodoptera frugiperda, foliar, 168 h, application rate 500 g/ha, read-out: efficacy (caterpillars killed)
  pest or weed control at 500 g/ha: 83%
Tetranychus urticae; application rate 500 g/ha
  efficacy (spider mites killed): 90%

## C#CCNC(=O)c1cc(-c2ccc(C(F)(F)F)cc2)cc(NC(=O)C2CC2)n1 [Example I-038]
[1]; [6]
  LOGP_HCOOH: 3.34
[1]; [5]
  LOGP_NEUTRAL: 3.25
Meloidogyne incognita
  nematicidal efficacy (formation of galls): 90%
Phaedon cochleariae; application rate 100 g/ha
  efficacy (beetle larvae killed): 100%
Phaedon cochleariae; application rate 500 g/ha
  efficacy (beetle larvae killed): 83%
Spodoptera frugiperda; application rate 500 g/ha
  efficacy (caterpillars killed): 83%

## N#Cc1cccc(CCNC(=O)c2cc(-c3ccc(OC(F)(F)F)cc3)cc(NC(=O)C3CC3)n2)c1 [Example I-091]
[1]; [6]
  LOGP_HCOOH: 4.01
[1]; [5]
  LOGP_NEUTRAL: 3.88
Ctenocephalides felis [2]
  efficacy (kill in %): 95%
Lucilia cuprina
  efficacy (kill in %): 100%
Phaedon cochleariae; application rate 500 g/ha
  efficacy (beetle larvae killed): 100%
Spodoptera frugiperda; application rate 100 g/ha
  efficacy (caterpillars killed): 100%
Spodoptera frugiperda; application rate 500 g/ha
  efficacy (caterpillars killed): 100%
Tetranychus urticae; application rate 500 g/ha
  efficacy (spider mites killed): 90%

## O=C(NC1CC1)c1cc(-c2ccc(SC(F)(F)F)cc2)cc(NC(=O)C2CC2)n1 [Example I-105]
[1]; [6]
  LOGP_HCOOH: 3.86
[1]; [5]
  LOGP_NEUTRAL: 3.71
Ctenocephalides felis [2]
  efficacy (kill in %): 100%
Phaedon cochleariae; application rate 100 g/ha
  efficacy (beetle larvae killed): 100%
Phaedon cochleariae; application rate 500 g/ha
  efficacy (beetle larvae killed): 100%
Spodoptera frugiperda; application rate 100 g/ha
  efficacy (caterpillars killed): 83%
Spodoptera frugiperda; application rate 500 g/ha
  efficacy (caterpillars killed): 100%
Tetranychus urticae; application rate 500 g/ha
  efficacy (spider mites killed): 100%

## CCNC(=O)c1cc(-c2ccc(OC(F)(F)F)cc2)cc(NC(=O)C2CC2)n1 [Example I-118]
[1]; [4]
  LOGP_HCOOH: 3.41
[1]; [5]
  LOGP_NEUTRAL: 3.33
Ctenocephalides felis [3]
  efficacy (fleas dead or moribund): 100%
Ctenocephalides felis [2]
  efficacy (kill in %): 100%
Phaedon cochleariae; application rate 100 g/ha
  efficacy (beetle larvae killed): 100%
Phaedon cochleariae; application rate 500 g/ha
  efficacy (beetle larvae killed): 100%
Spodoptera frugiperda; application rate 100 g/ha
  efficacy (caterpillars killed): 100%
Spodoptera frugiperda; application rate 500 g/ha
  efficacy (caterpillars killed): 100%

## CC1(NC(=O)c2cc(-c3ccc(OC(F)(F)F)cc3)cc(NC(=O)C3CC3)n2)CC1 [Example I-128]
[1]; [4]
  LOGP_HCOOH: 3.84
Ctenocephalides felis [3]
  efficacy (fleas dead or moribund): 100%
Ctenocephalides felis [2]
  efficacy (kill in %): 100%
Lucilia cuprina
  efficacy (kill in %): 100%
Phaedon cochleariae; application rate 100 g/ha
  efficacy (beetle larvae killed): 100%
Phaedon cochleariae; application rate 500 g/ha
  efficacy (beetle larvae killed): 100%
Spodoptera frugiperda; application rate 100 g/ha
  efficacy (caterpillars killed): 100%
Spodoptera frugiperda; application rate 500 g/ha
  efficacy (caterpillars killed): 100%

## COCCNC(=O)c1cc(-c2ccc(OC(F)(F)F)cc2)cc(NC(=O)C2CC2)n1 [Example I-177]
[1]; [4]
  LOGP_HCOOH: 3.29
[1]; [5]
  LOGP_NEUTRAL: 3.26
Meloidogyne incognita
  nematicidal efficacy (formation of galls): 90%

## N#Cc1ccc(CNC(=O)c2cc(-c3ccc(C(F)(F)C(F)(F)F)cc3)cc(NC(=O)C3CC3)n2)cc1 [Example I-182]
[1]; [4]
  LOGP_HCOOH: 4.24
[1]; [5]
  LOGP_NEUTRAL: 4.07
Ctenocephalides felis [2]
  efficacy (kill in %): 100%
Lucilia cuprina
  efficacy (kill in %): 100%
Phaedon cochleariae; application rate 100 g/ha
  efficacy (beetle larvae killed): 100%
Phaedon cochleariae; application rate 500 g/ha
  efficacy (beetle larvae killed): 100%
Spodoptera frugiperda; application rate 100 g/ha
  efficacy (caterpillars killed): 100%
Spodoptera frugiperda; application rate 500 g/ha
  efficacy (caterpillars killed): 100%
Tetranychus urticae; application rate 500 g/ha
  efficacy (spider mites killed): 90%

## N#CC1CCC(CNC(=O)c2cc(-c3ccc(C(F)(F)C(F)(F)F)c(F)c3)cc(NC(=O)C3CC3)n2)CC1 (stereo not shown) [Example I-185]
[1]; [4]
  LOGP_HCOOH: 4.29
[1]; [5]
  LOGP_NEUTRAL: 4.14
Phaedon cochleariae; application rate 100 g/ha
  efficacy (beetle larvae killed): 100%
Phaedon cochleariae; application rate 500 g/ha
  efficacy (beetle larvae killed): 100%
Spodoptera frugiperda; application rate 100 g/ha
  efficacy (caterpillars killed): 100%
Spodoptera frugiperda; application rate 500 g/ha
  efficacy (caterpillars killed): 100%
Tetranychus urticae; application rate 500 g/ha
  efficacy (spider mites killed): 90%

## O=C(NCc1ccccc1)c1cc(-c2ccc(OC(F)(F)F)cc2)cc(NC(=O)C2CC2)n1 [Example I-227]
[1]; [4]
  LOGP_HCOOH: 4.23
Phaedon cochleariae; application rate 500 g/ha
  efficacy (beetle larvae killed): 100%
Spodoptera frugiperda; application rate 500 g/ha
  efficacy (caterpillars killed): 100%
Tetranychus urticae; application rate 100 g/ha
  efficacy (spider mites killed): 90%
Tetranychus urticae; application rate 500 g/ha
  efficacy (spider mites killed): 90%

## O=C(NN=Cc1ccc(C(F)(F)F)c(F)c1)c1cc(-c2ccc(OC(F)(F)F)cc2)cc(NC(=O)C2CC2)n1 [Example I-257]
[1]; [6]
  LOGP_HCOOH: 4.72
Meloidogyne incognita
  nematicidal efficacy (formation of galls): 90%
Spodoptera frugiperda; application rate 500 g/ha
  efficacy (caterpillars killed): 100%

## O=C(NCc1ccc(N2CCCC2=O)cc1)c1cc(-c2ccc(OC(F)(F)F)cc2)cc(NC(=O)C2CC2)n1 [Example I-259]
[1]; [6]
  LOGP_HCOOH: 3.55
[1]; log P (neutral), HPLC reversed-phase column (C 18)
  LOGP_NEUTRAL: 3.58
Meloidogyne incognita
  nematicidal efficacy (formation of galls): 90%
Phaedon cochleariae; application rate 500 g/ha
  efficacy (beetle larvae killed): 83%
Spodoptera frugiperda; application rate 500 g/ha
  efficacy (caterpillars killed): 100%
